Common to all, as to assay: DTP human tumour cell line panel, 48 h
Assay [1] has as its system HCT-116.
Assay [2] has as its system HL-60.
For assay [3], the system named is HOP-92.
Assay [4] deals with HT-29.
For assay [5], the system named is Hs-578T.
Assay [6] relates to IGROV-1.
Assay [7] relates to K562.
Assay [8] has as its system LXFL 529.
Assay [9] has as its system MDA-MB-435.
Assay [10] has as its system NCI-H23.
Assay [11] has as its system NCI-H460.
In assay [12] the test system is OVCAR-5.
The subject of assay [13] is OVCAR-8.
The test system of assay [14] is PC-3.
The subject of assay [15] is RPMI-8226.
Assay [16] deals with RXF 393.
For assay [17], the system named is SK-MEL-5.
Assay [18] has as its system SNB-19.
The subject of assay [19] is T47D.
For assay [20], the system named is UO-31.

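Method: 48-hour compound exposure of cells in 96-well plates, five concentrations, linear interpolation of endpoints. At the GI50, growth is halved.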 The source made the active and inactive calls. No stated cut-off is given here; in the data, active = GI50 up to about 1.1 µM and inactive = higher.

Usually GI50 stands for the concentration giving 50% growth inhibition. As for `COc1c(OC(C)=O)c(OC(C)=O)cc2c1-c1ccc(OC)c(=O)cc1C(NC(C)=O)CC2` (stereo not drawn), the GI50 in [1] was 0.0215 µM (active); in [2], < 0.01 µM (active); in [3] it was 0.0173 µM (active); in assay [4], 0.0198 µM (active); in assay [5] it was < 0.01 µM (active); in assay [6], 0.0254 µM (active). Moreover, the GI50 in [7] is < 0.0123 µM (active); in [8] it was < 0.01 µM (active); in [9], < 0.01 µM (active); in assay [10] it was 0.0199 µM (active); in assay [11] it was 0.0451 µM (active); in [12], 2.61 µM (inactive). The GI50 in assay [13] was 0.0254 µM (active); in assay [14], 0.0493 µM (active); in assay [15] it was < 0.0142 µM (active); in [16] it was < 0.01 µM (active); in assay [17] it was 0.0116 µM (active); in [18], 0.0336 µM (active). In addition, the values for the GI50 in assay [19] and in [20] were > 100 µM (inactive) and 4.86 µM (inactive), respectively.

Consider `CC(C)N(C(=O)C12C3C4C1(I)C1C2C3(I)C41C(=O)N(C(C)C)C(C)C)C(C)C` (stereo not drawn), for which the GI50 in [1] was > 100 µM (inactive); in assay [2], > 44.9 µM (inactive); in assay [3] it was > 100 µM (inactive); in [4], > 100 µM (inactive); in assay [6], > 100 µM (inactive); in [7] it was > 43.4 µM (inactive). The GI50 is > 67.6 µM (inactive) in assay [8]; > 100 µM (inactive) in assay [10]; > 100 µM (inactive) in assay [11]; > 100 µM (inactive) in assay [12]; > 100 µM (inactive) in assay [13]; > 52.2 µM (inactive) in assay [15]. The GI50 in [16], in assay [17], in assay [18] and in [20] was > 100 µM (inactive) each time.

In the case of `CCOC(=O)c1s/c(=N\Nc2nc3ccccc3cc2C2OCCO2)n(Cc2ccccc2)c1C`, the GI50 in assay [1], in assay [2], in [3], in assay [4], in assay [6] and in assay [7] was > 100 µM (inactive) throughout. The GI50 in assay [8], in [10], in assay [11], in assay [12], in assay [13] and in assay [15] was > 100 µM (inactive) each time. The GI50 in [16], in [17], in assay [18] and in assay [20] was > 100 µM (inactive) in each case.

In the case of `C=CCc1cc(-c2cc(CC=C)c(O)c(CN(CCCl)CCCl)c2)cc(CN(CCCl)CCCl)c1O`, the GI50 in assay [1] was 11.1 µM (inactive); in [2], 3.09 µM (inactive); in assay [3], 15.4 µM (inactive); in [4] it was 13.7 µM (inactive); in [5] it was 37 µM (inactive); in assay [6], 16.2 µM (inactive). Besides, the GI50 in assay [7] is 32.8 µM (inactive); in [8] it was 12.2 µM (inactive); in [9], 15.4 µM (inactive); in assay [10], 6.89 µM (inactive); in assay [11], 3.79 µM (inactive); in [12], 18.3 µM (inactive). In addition, the GI50 in [13] was 12.1 µM (inactive); in assay [14], 9.08 µM (inactive); in assay [15] it was 12.2 µM (inactive); in assay [16], 12.8 µM (inactive); in assay [17], 16.8 µM (inactive); in [18], 19.1 µM (inactive). For the same molecule, the GI50 in assay [19] is 8.55 µM (inactive); in [20], 16.3 µM (inactive).

On to `N#CCC(=O)N/N=C(/C(=O)Nc1ccccc1)C1C(=O)N(c2ccccc2)N=C1N` (stereo not drawn), for which the GI50 in assay [1], in assay [2], in assay [3], in [4], in assay [6] and in assay [7] was > 100 µM (inactive) each time. The GI50 in assay [8], in [10], in assay [11], in assay [12], in assay [13] and in assay [15] was > 100 µM (inactive) each time. In addition, the GI50 in [16], in [17], in [18] and in [20] was > 100 µM (inactive) throughout.

(Values after ChEMBL document CHEMBL1201862, “PubChem BioAssay data set” (2004).)
